Key:
[1] = biological target: Replicase polyprotein 1a (Severe acute respiratory syndrome-related coronavirus) (UniProt P0C6U8); assay: Ratio of Kinact to Ki for SARS coronavirus Chymotrypsin-like protease
Replicase polyprotein 1a = Replicase polyprotein 1a (Severe acute respiratory syndrome-related coronavirus, UniProt P0C6U8); assay: Inhibition of SARS coronavirus Chymotrypsin-like protease using H-Thr-Ser-Ala-Val-Leu-Gln-Ser-Gly-Phe-Arg-Lys-NH2 as substrate by fluorescence assay

SMILES	Ratio [1] [M⁻¹ s⁻¹]	Ki (Replicase polyprotein 1a) [nM]
CCOC(=O)C1OC1C(=O)N(CCC(N)=O)NC(=O)[C@@H](CC(=O)[C@H](CC(C)C)NC(=O)OCc1ccccc1)Cc1ccccc1 (some centres not stated)	1900	–
COc1ccc(/C=C/C(=O)N[C@@H](CC(C)C)C(=O)N[C@@H](C[C@@H]2CCNC2=O)C(=O)c2nc3ccccc3s2)cc1OC	–	1300
CC(C)C[C@H](NC(=O)Cc1ccccc1)C(=O)N[C@@H](C[C@@H]1CCNC1=O)C(=O)c1nc2ccccc2s1	–	3200
CC(C)CC(=O)N[C@@H](CC(C)C)C(=O)N[C@@H](C[C@@H]1CCNC1=O)C(=O)c1nc2ccccc2s1	–	5900
CC(C)C[C@H](NC(=O)OC(C)(C)C)C(=O)N[C@@H](C[C@@H]1CCNC1=O)C(=O)c1nc2ccccc2s1	–	23000
COc1ccc(/C=C/C(=O)N[C@@H](CC(C)C)C(=O)N[C@@H](C[C@@H]2CCNC2=O)C(=O)c2nc3ccccc3s2)cc1	–	700
CC(C)C[C@H](NC(=O)OCc1ccccc1)C(=O)N[C@@H](C[C@@H]1CCNC1=O)C(=O)c1ncc(-c2ccccc2)s1	–	660
COc1ccc(-c2cnc(C(=O)[C@H](C[C@@H]3CCNC3=O)NC(=O)[C@H](CC(C)C)NC(=O)OCc3ccccc3)s2)cc1	–	52000
COc1ccccc1-c1cnc(C(=O)[C@H](C[C@@H]2CCNC2=O)NC(=O)[C@H](CC(C)C)NC(=O)OCc2ccccc2)s1	–	2500
CC(C)[C@H](NC(=O)OCc1ccccc1)C(=O)N[C@@H](C[C@@H]1CCNC1=O)C(=O)c1nc2ccccc2s1	–	1710
COc1ccc(CCC(=O)N[C@@H](CC(C)C)C(=O)N[C@@H](C[C@@H]2CCNC2=O)C(=O)c2nc3ccccc3s2)cc1	–	610
COc1ccc(NCC(=O)N[C@@H](CC(C)C)C(=O)N[C@@H](C[C@@H]2CCNC2=O)C(=O)c2nc3ccccc3s2)cc1	–	3200
Cc1ccc(-c2cnc(C(=O)[C@H](C[C@@H]3CCNC3=O)NC(=O)[C@H](CC(C)C)NC(=O)OCc3ccccc3)s2)cc1	–	37000
COc1ccc(OCC(=O)N[C@@H](CC(C)C)C(=O)N[C@@H](C[C@@H]2CCNC2=O)C(=O)c2nc3ccccc3s2)cc1	–	1560
CSCC[C@H](NC(=O)OCc1ccccc1)C(=O)N[C@@H](C[C@@H]1CCNC1=O)C(=O)c1nc2ccccc2s1	–	9400
CC(C)C[C@H](NC(=O)CCc1cccnc1)C(=O)N[C@@H](C[C@@H]1CCNC1=O)C(=O)c1nc2ccccc2s1	–	7400
O=C(N[C@@H](Cc1ccccc1)C(=O)N[C@@H](C[C@@H]1CCNC1=O)C(=O)c1nc2ccccc2s1)OCc1ccccc1	–	1200
CC(C)C[C@H](NC(=O)COc1cccc(N(C)C)c1)C(=O)N[C@@H](C[C@@H]1CCNC1=O)C(=O)c1nc2ccccc2s1	–	840
CC[C@@H](C)[C@H](NC(=O)OCc1ccccc1)C(=O)N[C@@H](C[C@@H]1CCNC1=O)C(=O)c1nc2ccccc2s1	–	29000
CC(C)C[C@H](NC(=O)COc1ccc(O)cc1)C(=O)N[C@@H](C[C@@H]1CCNC1=O)C(=O)c1nc2ccccc2s1	–	8400
CCCC[C@H](NC(=O)OCc1ccccc1)C(=O)N[C@@H](C[C@@H]1CCNC1=O)C(=O)c1nc2ccccc2s1	–	1600
CC(C)C[C@H](NC(=O)/C=C/c1ccccc1)C(=O)N[C@@H](C[C@@H]1CCNC1=O)C(=O)c1nc2ccccc2s1	–	690

Reference: ChEMBL document CHEMBL2401675, “Design, synthesis, and biological evaluation of novel dipeptide-type SARS-CoV 3CL protease inhibitors: structure-activity relationship study” (Eur J Med Chem, 2013)
